The source of these data is US20220288051A1, “METHODS FOR TREATING CANCER USING SERIAL ADMINISTRATION OF E3 UBIQUITIN LIGASE DEGRADERS” (Dana-Farber Cancer Institute, Inc., priority 2019, published 2022).

The test system of one data set is pools of MM cells. The data set can be described thus: Sequential exposure to CRBN- and VHL-based degraders, CTG. In kind it is cell-based, human. The following applies: compared to treatment-naïve cells. The source says:
We addressed this question using pools of MM cells derived from several of our genome-scale CRISPR-based screens.

Another data set has as its system MM.1S-Cas9+ cells. The data set can be described thus: Genome-scale CRISPR/Cas9 gene editing (LOF) resistance screens. The following applies: 25 nM for 48 hrs; Brunello library. In kind it is cell-based, human.
The subject of the next data set is MM.1S-dCas9-VP64 cells. The data set can be described thus: Genome-scale CRISPR gene activation resistance screens. In kind it is cell-based, human. The following applies: Calabrese library; successive rounds of treatment. On the procedure:
We also performed genome-scale CRISPR-based gene-activation screens, which followed the “long-term” configuration of the gene editing studies.
For the genome-scale screen with the Calabrese sgRNA library, tumor cells were transduced in batches of 3×10^7 cells per sublibrary for triplicates. Cells were incubated (18 h) in cell medium containing polybrene (4 μg/mL; Santa Cruz Biotechnology), 10 mM HEPES (pH 7.4) (Sigma-Aldrich) and viral prep (30 mL) diluted 1:1. Transduced cells were cultured at an initial density of 1×10^6 cells/mL and were treated with puromycin (1 μg/mL) for up to 7 days additional two days from transduction. After stable transduction, pooled MM.1S cells were plated at 30×10^6 cells per flask (T175, 100 mL) to enable coverage of 500× and were sub-cultured at three- to four-day intervals to prevent confluence. […]
Cells were immediately harvested (30×10^6) and sgRNA distribution assessed, by next generation sequencing.
iv. […] DNA concentration was quantified by UV-spectroscopy (NanoDrop 8000; ThermoFisher Scientific). […] Multiplexed samples were then sequenced at the Molecular Biology Core Facility (Dana-Farber Cancer Institute) and/or The Genomics Platform (Broad Institute) using an Illumina NextSeq 500 (Illumina, San Diego, Calif.), allowing […] individual reads per multiplexed sample.

The subject of data set [1] is MM cells cultured in the presence of bone-marrow stromal cells. The data set can be described thus: CS-BLI viability in co-culture with bone marrow stromal cells. In kind it is cell-based, human. Conditions: co-culture vs MM cells alone. Here is the method: Cell viability and growth of human MM cell lines were assessed using CellTitre-Glo (CTG) assay (Promega, Madison, Wis.) per kit instructions, or CS-BLI as described (Delmore et al., 2011). Briefly, cells were seeded (5×10^3 cells/well) into 96- or 384-well opaque plates, in supplemented media (40 or 50 uL) and incubated for 24 h prior to addition of drug. For co-culture experiments, HS27A cells were pre-seeded (5×10^3 cells/well) into each well in media prior (24 h) to the addition of MM cells. At each time point (24 h, 48 h, and/or 72 h) CTG reagent (10% volume) was added to each well, and plates were read using a microplate reader (BioTek Synergy 2, BioTek, Winooski, Va.).

The target of a further data set is MDR1 transporter (Homo sapiens, UniProt P08183). Conditions: stated as fact; cited from earlier work.
Sequence of MDR1 transporter (P08183 whole entry): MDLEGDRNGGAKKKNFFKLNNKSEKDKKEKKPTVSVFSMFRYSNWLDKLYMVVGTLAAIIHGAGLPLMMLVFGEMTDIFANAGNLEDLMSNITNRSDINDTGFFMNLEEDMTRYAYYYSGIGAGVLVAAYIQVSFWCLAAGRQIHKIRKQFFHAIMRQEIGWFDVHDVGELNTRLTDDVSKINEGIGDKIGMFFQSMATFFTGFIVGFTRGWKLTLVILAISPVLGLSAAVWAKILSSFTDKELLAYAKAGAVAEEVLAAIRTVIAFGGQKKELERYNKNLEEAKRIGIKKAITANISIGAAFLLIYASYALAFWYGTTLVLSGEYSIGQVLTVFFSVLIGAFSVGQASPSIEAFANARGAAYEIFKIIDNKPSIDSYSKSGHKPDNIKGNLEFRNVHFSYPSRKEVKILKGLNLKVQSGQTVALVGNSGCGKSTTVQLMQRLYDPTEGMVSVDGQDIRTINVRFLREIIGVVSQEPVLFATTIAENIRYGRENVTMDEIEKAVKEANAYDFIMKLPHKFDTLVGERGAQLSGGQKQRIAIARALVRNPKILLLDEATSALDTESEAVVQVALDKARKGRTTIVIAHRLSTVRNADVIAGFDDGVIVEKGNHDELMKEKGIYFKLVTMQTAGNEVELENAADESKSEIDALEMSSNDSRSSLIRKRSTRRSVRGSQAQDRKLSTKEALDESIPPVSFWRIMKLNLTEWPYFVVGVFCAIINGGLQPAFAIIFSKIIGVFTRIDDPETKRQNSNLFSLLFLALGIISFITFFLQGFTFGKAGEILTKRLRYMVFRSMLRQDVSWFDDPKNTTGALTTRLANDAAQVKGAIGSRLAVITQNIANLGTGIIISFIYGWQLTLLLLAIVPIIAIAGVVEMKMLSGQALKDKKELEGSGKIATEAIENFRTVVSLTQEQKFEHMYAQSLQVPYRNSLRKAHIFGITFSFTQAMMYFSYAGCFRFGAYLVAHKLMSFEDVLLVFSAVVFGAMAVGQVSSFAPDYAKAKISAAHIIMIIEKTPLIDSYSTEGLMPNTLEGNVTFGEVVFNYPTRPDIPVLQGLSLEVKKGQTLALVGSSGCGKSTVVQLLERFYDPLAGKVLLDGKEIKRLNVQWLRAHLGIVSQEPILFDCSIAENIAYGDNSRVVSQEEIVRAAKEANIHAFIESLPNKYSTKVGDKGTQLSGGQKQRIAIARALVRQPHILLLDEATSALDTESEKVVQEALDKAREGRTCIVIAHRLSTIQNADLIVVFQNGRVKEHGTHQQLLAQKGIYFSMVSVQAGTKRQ
The next data set concerns human MM.1S cells. In words: Xenograft model of diffuse MM lesions. Conditions: 20 mg/kg, QD, 12 days. Type of data set: in vivo, NSG mice. Here is the method: (§1) ii. Xenograft model of diffuse MM lesions: Luciferase-positive MM.1S cells (1×106 Luc-GFP-MM.1S) were injected via the tail vein (IV) into NSG mice. […] BLI was undertaken weekly and mice were euthanized when moribund or upon signs of hind-limb paralysis.

The nature of data set [2]: Tolerability of dBET6 treatment in mice. Type of data set: in vivo. On the procedure: i. Subcutaneous MM xenograft model: Luciferase-positive MM.1S cells (10×106 Luc-GFP-MM.1S in matrigel) were transplanted into the right flank of NSG mice (100 μL). […] Treatments were carried out daily for 8 days and tumor size assessed daily using calipers. Mice were culled when tumors reached 2000 mm3 or when moribund.
as §1

For `CC(C)(C)c1cnc(CSc2cnc(NC(=O)C3CCN(CC(=O)NCCOCCOCCOCCNc4cccc5c4C(=O)N(C4CCC(=O)NC4=O)C5=O)CC3)s2)o1` (centres unmarked) [Thal-SNS-032], the “shift of dose response curve in pools previously exposed to CRBN-based degraders” value with pools of MM cells was “major shifts to the right”. In addition, in the data set on MM.1S-Cas9+ cells, the “sgRNA enrichment, short-term screen” value was “CRBN is the top gene in terms of sgRNA enrichment”.
`Cc1sc2c(c1C)C(c1ccc(Cl)cc1)=N[C@@H](CC(=O)NCCCCCCCCNC(=O)COc1cccc3c1C(=O)N(C1CCC(=O)NC1=O)C3=O)c1nnc(C)n1-2` (some centres unmarked) [dBET6]: the “sgRNA enrichment, gene activation screen” value in the data set on MM.1S-dCas9-VP64 cells is recorded as “ABCB1, the gene for the MDR1 transporter, was commonly identified as the only gene with sgRNA enrichment”. The “change in responsiveness in the presence of bone-marrow stromal cells” value in data set [1] is listed as “No major changes in dBET6 responsiveness”. The MDR1 substrate entry on MDR1 transporter is recorded as “MDR1 substrates”. Besides, in the data set with human MM.1S cells, the overall survival result was “only minimal overall survival advantage” and the “tumor burden measured by BLI vs vehicle” value was “significantly lower tumor burden”. Also, in the data set with MM.1S-Cas9+ cells, the “sgRNA enrichment, short-term screen” value is recorded as “CRBN is the top gene in terms of sgRNA enrichment”. For the same molecule, the tolerability entry in data set [2] (doses and schedules reported) is on record as “Mice tolerated dBET6 treatment”. In addition, the “efficacy or tolerability of alternative regimens” value in data set [2] (pilot experiments, lower or higher dose intensity (data not shown)) is listed as “less efficacy or tolerability, respectively”.
Take `Cc1ncsc1-c1ccc([C@H](C)NC(=O)[C@@H]2C[C@@H](O)CN2C(=O)[C@@H](NC(=O)COCCCOCCNC(=O)C[C@@H]2N=C(c3ccc(Cl)cc3)c3c(sc(C)c3C)-n3c(C)nnc32)C(C)(C)C)cc1` [ARV-771]: the “sgRNA enrichment, gene activation screen” value in the data set on MM.1S-dCas9-VP64 cells was “ABCB1, the gene for the MDR1 transporter, was commonly identified as the only gene with sgRNA enrichment”. For the same molecule, the MDR1 substrate entry at MDR1 transporter is listed as “MDR1 substrates”. For the same molecule, in the data set with pools of MM cells, the “response of pools previously exposed to ARV771 and then MZ1” value was “significantly decreased responsiveness”; the “shift of dose response curve in pools previously exposed to CRBN-based degraders” value is “limited, if any, shift”.
